For eleven compounds, zone of inhibition, IC50 and response vs control in vivo results are on record in patent EP0103381B1, “Substituted anthra(1,9-cd)pyrazol-6(2H)-ones” (WARNER-LAMBERT COMPANY, priority 1982, dated 1984).

One test relates to Escherichia coli. The test can be described thus: agar plate paper-disc inhibition zone screening. Format: cell-based. The settings on record: read-out: Inhibition Zone Diameter mm (Dose mg/ml) E. Coli; for zone of inhibition at 1000 µg/mL: Dose 1.0 mg/ml; for zone of inhibition at 3000 µg/mL: Dose 3.0 mg/ml; for zone of inhibition at 500 µg/mL: Dose 0.5 mg/ml. The essentials: (§1)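 Read-out: diameter (mm) of the inhibition zone around 12.7 mm paper discs after overnight (18-20 h) incubation at 37°C. Discs carried compound at 3,000-10 mcg/ml in alcohol, DMSO or DMF, final solvent <10%. Seeded agar trays used saline-suspended cells adjusted to 20-35% transmittancy.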

The next test concerns Bacillus subtilis. The test can be described thus: agar plate paper-disc inhibition zone screening. Format: cell-based. The settings on record: read-out: Inhibition Zone Diameter mm (Dose mg/ml) B. Subtilis; for zone of inhibition at 1000 µg/mL: Dose 1.0 mg/ml; for zone of inhibition at 100 µg/mL: Dose 0.1 mg/ml; for zone of inhibition at 500 µg/mL: Dose 0.5 mg/ml. In outline:
as §1

Another test has as its system Streptococcus faecalis. Nature of the test: agar plate paper-disc inhibition zone screening. Format: cell-based. Conditions: Enterococcus faecalis, read-out: Inhibition Zone Diameter mm (Dose mg/ml) S. Faecalis; for zone of inhibition at 500 µg/mL: Dose 0.5 mg/ml; for zone of inhibition at 1000 µg/mL: Dose 1.0 mg/ml; for zone of inhibition at 3000 µg/mL: Dose 3.0 mg/ml. The essentials: as §1

In the next test the test system is Aerobacter aerogenes. The test can be described thus: agar plate paper-disc inhibition zone screening. Format: cell-based. The settings on record: Klebsiella aerogenes, read-out: Inhibition Zone Diameter mm (Dose mg/ml) A. Aerogenes; for zone of inhibition at 1000 µg/mL: Dose 1.0 mg/ml; for zone of inhibition at 500 µg/mL: Dose 0.5 mg/ml. The essentials:
as §1

A further test concerns Penicillium avellaneum. The test can be described thus: agar plate paper-disc inhibition zone screening. Format: cell-based. The settings on record: Hamigera avellanea, read-out: Inhibition Zone Diameter mm (Dose mg/ml) P. Avellaneum; for zone of inhibition at 1000 µg/mL: Dose 1.0 mg/ml; for zone of inhibition at 3000 µg/mL: Dose 3.0 mg/ml. The essentials: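 Mycelia and spores from a six-day 28°C agar culture, suspended in saline with 0.05% Tween 80 at 20% transmittancy, were seeded into molten agar trays. Compounds at 3,000, 1,000, 500, 100 and 10 mcg/ml (solvent <10%) were applied on 12.7 mm paper discs. After at least 20-24 h incubation, inhibition zone diameter was measured in mm.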

Test [1] deals with HCT-8 (human colon adenocarcinoma) cells. The test can be described thus: in vitro activity against human colon adenocarcinoma (HCT-8), cell count. The settings on record: Homo sapiens; HCT-8 cells, 60-65 hrs with compound; molar quantity of drug required to kill 50% of the tumor cells; read-out: ID50 Molar. Format: cell-based. As to the method: HCT-8 (human colon adenocarcinoma) cells are trypsinized using Trypsin-EDTA. A single cell suspension is achieved by passing the cells through a 26 gauge needle with a 20 cc syringe. A cell suspension is prepared using RPMI 1640 growth medium (available from Gibco Laboratories) +10% fetal calf serum +50 µg/ml garamycin with a cell concentration of approximately 30,000 cells/ml. The cell suspension is dispensed in Linbro 24-well plates; 1 ml/well. The plates are incubated for approximately 48 hrs at 37°C in a 5% C02 atmosphere. At this time test compounds are added in the appropriate concentration. Five µl of the 200 µg/ml stock solution is added to each well in a primary test. Ten pl of the appropriate dilution is added to each well for a titration test. The plates are reincubated an additional 60-65 hrs at 37°C in a 5% C02 atmosphere. The test is read by lysing the cells using a mix of cationic surfactant, glacial acetic acid and sodium chloride. […] of the lysed cell suspension from each well is added to 8 ml of diluent. Each sample is read with a Coulter counter (ZBI model). The activity of each sample is measured as a percentage of the controls and the data is reported as ID50, that is the molar quantity of drug required to kill 50% of the tumor cells.

In test [2] the test system is lymphocytic leukemia P388. The test can be described thus: in vivo lymphocytic leukemia P388 test. Further details: species or system mice. Conditions: Mus musculus, P388, ip, 720 h, two single doses four days apart, read-out: T/C × 100 (Percent); for response vs control in vivo at 1.56 mg/kg: P388, Dose 1.56 mg/kg intraperitoneally; for response vs control in vivo at 25 mg/kg: P388, Dose 25 mg/kg intraperitoneally. In outline:
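Efficacy was judged from the treated/control survival-time ratio over 30 days (T/C×100 >125% as criterion). Mice (CD2F, 6–7/group) received i.p. P388 ascites cells, then compound i.p. at varied doses twice, four days apart.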

For `CCN(CC)CCn1nc2c3c(c(NCCN4CCOCC4)ccc31)C(=O)c1ccccc1-2` [Example 4], the zone of inhibition at 1000 µg/mL with Escherichia coli was found to be 14 mm; with Bacillus subtilis it was 25 mm; in the test on Aerobacter aerogenes, 15 mm; with Penicillium avellaneum it was 14 mm. In addition, the zone of inhibition at 500 µg/mL in the test on Streptococcus faecalis was 14 mm. In addition, the IC50 in test [1] turned out to be 120 nM. Also, the response vs control in vivo at 100 mg/kg in test [2] (P388, Dose 100 mg/kg intraperitoneally) stood at 145%. Also, the response vs control in vivo at 400 mg/kg in test [2] (P388, Dose 400 mg/kg intraperitoneally) came to 211%.

Turning to `CCN(CC)CCNc1ccc2c3c(nn2C)-c2ccccc2C(=O)c13` [Example 10, 5-[[2-[Diethylamino)ethyl]amino]-2-methylanthra[1,9-cd]pyrazol-6(2H)-one], the zone of inhibition at 3000 µg/mL in the test with Escherichia coli came out at 15 mm. For the same compound, the zone of inhibition at 100 µg/mL in the test with Bacillus subtilis was 15 mm. For the same compound, the zone of inhibition at 1000 µg/mL with Streptococcus faecalis is 16 mm. Besides, the figures for the zone of inhibition at 500 µg/mL in the test on Aerobacter aerogenes and in the test with Penicillium avellaneum (Dose 0.5 mg/ml) were 17 mm and 16 mm, respectively. The IC50 in test [1] was found to be 410 nM.

In the case of `Cn1nc2c3c(c(NCCNCCO)ccc31)C(=O)c1ccccc1-2` [Example 11, 5-[[2-[(2-Hydroxyethyl)amino]ethyl]amino]-2-methylanthra[1,9-cd]pyrazol-6(2H)-one], the zone of inhibition at 1000 µg/mL with Escherichia coli and in the test with Streptococcus faecalis was 14 mm throughout. For the same compound, the zone of inhibition at 100 µg/mL in the test with Bacillus subtilis worked out at 14 mm. Also, in the test with Aerobacter aerogenes, the zone of inhibition at 500 µg/mL came to 17 mm. The zone of inhibition at 3000 µg/mL in the test on Penicillium avellaneum amounted to 0 mm. Further, in test [1], the IC50 was 400 nM.

As to `CCN(CC)CCNc1ccc2c3c(nn2CCO)-c2ccccc2C(=O)c13` [Example 13, 5-[[2-(Diethylamino]ethyl]amino]-2-(2-hydroxyethyl)anthra[1,9-cd]pyrazol-6(2H)-one], the zone of inhibition at 1000 µg/mL in the test with Escherichia coli worked out at 15 mm; in the test on Streptococcus faecalis, 14 mm. Further, in the test with Bacillus subtilis, the zone of inhibition at 100 µg/mL came to 15 mm. Also, the zone of inhibition at 500 µg/mL with Aerobacter aerogenes was determined as 20 mm. Further, the zone of inhibition at 3000 µg/mL with Penicillium avellaneum is 16 mm. For the same compound, in test [1], the IC50 stood at 1800 nM.

In the case of `CCN(CC)CCCNc1ccc2c3c(nn2CCO)-c2ccccc2C(=O)c13` [Example 15, 5-[[3-(Diethylamino)propyl]amino]-2-(2-hydroxyethyl)anthra[1,9-cd]pyrazol-6(2H)-one], the zone of inhibition at 3000 µg/mL in the test on Escherichia coli was 0 mm; in the test on Streptococcus faecalis it was 14 mm; with Penicillium avellaneum, 0 mm. Further, the zone of inhibition at 1000 µg/mL was 22 mm in the test on Bacillus subtilis and 15 mm with Aerobacter aerogenes. Further, the IC50 in test [1] came to 480 nM.

Take `O=C1c2ccccc2-c2n[nH]c3ccc(NCCNCCO)c1c23` [Example 19, 5-[[2-[(2-Hydroxyethyl)amino]ethyl]amino]anthra[1,9-cd]pyrazol-6-(2H)-one]: the zone of inhibition at 3000 µg/mL stood at 0 mm in the test on Escherichia coli, 17 mm in the test on Streptococcus faecalis and 0 mm with Penicillium avellaneum. In addition, the zone of inhibition at 500 µg/mL in the test on Bacillus subtilis stood at 19 mm; with Aerobacter aerogenes, 18 mm. In addition, in test [1], the IC50 amounted to 1500 nM.

On to `O=C1c2ccccc2-c2nn(CCNCCO)c3ccc(NCCNCCO)c1c23` [Example 21, 2-[2-[(2-Hydroxyethyl)amino]ethyl]-5-[[2-[(2-hydroxyethyl)amino]ethyl]amino]anthra[1,9-cd]pyrazol-6(2H)-one], for which the zone of inhibition at 3000 µg/mL came to 16 mm in the test with Escherichia coli, 0 mm in the test with Streptococcus faecalis and 0 mm in the test on Penicillium avellaneum. Also, the zone of inhibition at 500 µg/mL in the test on Bacillus subtilis is 18 mm. Besides, the zone of inhibition at 1000 µg/mL in the test on Aerobacter aerogenes stood at 14 mm. Moreover, the IC50 in test [1] came to 960 nM. The response vs control in vivo at 1.56 mg/kg in test [2] is 132%. Besides, the response vs control in vivo at 6.25 mg/kg in test [2] (P388, Dose 6.25 mg/kg intraperitoneally) stood at 147%. Further, the response vs control in vivo at 25 mg/kg in test [2] was 171%. For the same compound, the response vs control in vivo at 50 mg/kg in test [2] (P388, Dose 50 mg/kg intraperitoneally) was 199%.

With `NCCNc1ccc2c3c(nn2CCNCCO)-c2ccccc2C(=O)c13` [Example 22, 5-[(2-Aminoethyl)amino]-2-[2-[(2-hydroxyethyl)amino]ethyl]anthra[1,9-cd]pyrazol-6(2H)-one], the zone of inhibition at 100 µg/mL is 14 mm in the test on Escherichia coli (Dose 0.1 mg/ml) and 15 mm with Bacillus subtilis. For the same compound, the zone of inhibition at 3000 µg/mL with Streptococcus faecalis and in the test with Penicillium avellaneum was 0 mm each time. Further, the zone of inhibition at 500 µg/mL in the test on Aerobacter aerogenes was found to be 16 mm. Also, in test [1], the IC50 was determined as 42 nM. Further, in test [2], the response vs control in vivo at 1.56 mg/kg is 150%. For the same compound, in test [2] (P388, Dose 3.12 mg/kg intraperitoneally), the response vs control in vivo at 3.12 mg/kg was found to be 162%. Besides, the response vs control in vivo at 12.5 mg/kg in test [2] (P388, Dose 12.5 mg/kg intraperitoneally) worked out at 175%. In test [2], the response vs control in vivo at 25 mg/kg is 189%.

Regarding `CNc1ccc2c3c(nn2CCNCCO)-c2ccccc2C(=O)c13` [Example 26, 2-[2-[(2-Hydroxyethyl)amino]ethyl]-5-(methylamino)anthra[1,9-cd]pyrazol-6(2H)-one], the zone of inhibition at 500 µg/mL was 14 mm in the test with Escherichia coli and 15 mm with Streptococcus faecalis. The values for the zone of inhibition at 100 µg/mL with Bacillus subtilis and in the test on Aerobacter aerogenes (Dose 0.1 mg/ml) were 14 mm and 15 mm, respectively. Besides, the zone of inhibition at 3000 µg/mL in the test on Penicillium avellaneum came to 0 mm. Moreover, the IC50 in test [1] was 280 nM.

For the compound `CCN(CC)CCn1nc2c3c(cccc31)C(=O)c1c(NCCNCCO)cccc1-2` [Example 79, 2-[2-(Diethylamino)ethyl]-7-[[2-[(2-hydroxyethyl)amino]ethyl]amino]anthra[1,9-cd]pyrazol-6(2H)-one], the values for the zone of inhibition at 500 µg/mL in the test with Escherichia coli, with Streptococcus faecalis and in the test on Aerobacter aerogenes were 15 mm, 16 mm and 18 mm, respectively. Also, in the test with Bacillus subtilis, the zone of inhibition at 100 µg/mL is 20 mm. Besides, the zone of inhibition at 3000 µg/mL in the test with Penicillium avellaneum was determined as 15 mm. Also, the IC50 in test [1] amounted to 93 nM.

Take `CCN(CC)CCNc1cccc2c1C(=O)c1cccc3c1c-2nn3CCN(CC)CC` [Example 80, 2-[2-(Diethylamino)ethyl]-7-[[2-(diethylamino)ethyi]amino]anthra[1,9-cd]pyrazol-6(2H)-one]: the zone of inhibition at 500 µg/mL in the test with Escherichia coli was determined as 14 mm; in the test on Streptococcus faecalis, 15 mm; with Aerobacter aerogenes, 16 mm. Moreover, the zone of inhibition at 100 µg/mL in the test on Bacillus subtilis was 19 mm. The zone of inhibition at 1000 µg/mL with Penicillium avellaneum came out at 16 mm. The IC50 in test [1] stood at 220 nM.
